According to patent US9668479B2, “Modulating germination of Paenibacillus larvae” (THE BOARD OF REGENTS OF THE NEVADA SYSTEM OF HIGHER …, priority 2013, dated 2017):
Where two headings read alike, the source gives them in different places.

Columns and labels:
P. larvae spores [1] = assay: Inhibition of P. larvae spore germination by indole and phenol, IC50 titration (Example 1); assay type: cell-based, Paenibacillus larvae subsp. pulvifaciens strain ATCC 49843; conditions: for IC50: Paenibacillus larvae
Procedure: The decrease in optical density is proportional to spore germination (Powell, J. Gen. Microbiol., 4:330-338, 1950). Changes in light diffraction during spore germination were monitored at 580 nm (OD580) on a Biomate 5 (ThermoElectron Corporation, Waltham, Mass.) or a Tecan Infinite m200 (Tecan group, Männedorf, Switzerland) spectrophotometer. Experiments were carried out in 96-well plates (200 μL/well). In preparation for germination assays, P. larvae spore suspensions were washed three times with water. Spores were then heat activated at 70° C. for 30 minutes. The heat-activated spores were allowed to reach room temperature and transferred to 0.1 M sodium phosphate buffer (pH 7.0) to an approximate OD580 of 0.70. Spores were monitored for auto-germination for 30 minutes. […] Putative germinants were added individually or in combinations to a final concentration of 3 mM. Experiments were performed in triplicate with at least two different spore preparations. After germinant addition, OD580 of the spore suspension was measured every minute for an hour. Relative OD values were derived by dividing each OD580 reading by the initial OD580. Spore germination rates (v) were calculated from the initial linear decrease in relative OD (Akoachere et al., supra). Germination rates were set to 100% for P. larvae spores that had the fastest germination rate in an assay. Germination rates for other conditions were divided by the maximum germination rate for that assay and are reported as percent germination. […] Spore germination was confirmed in selected samples by microscope observation of Schaeffer-Fulton stained aliquots (Schaeffer and Fulton, supra).
After 15 minutes of incubation, spores were treated with 3 mM L-tyrosine/3 mM uric acid. The germination rate was set to 100% for P. larvae spores germinated in the absence of inhibitor. Germination rates for other conditions were divided by the uninhibited maximum germination rate obtained with 3 mM L-tyrosine/3 mM uric acid, and are reported as percent germination. Percent germination was plotted against inhibitor concentrations. The resulting sigmoidal curves were fitted using the four parameter logistic function in SigmaPlot v.9 to calculate IC50 values.

P. larvae spores [2] = assay: Inhibition of P. larvae spore germination, IC50 titration of indole analogs (Example 2); assay type: cell-based, Paenibacillus larvae subsp. pulvifaciens strain ATCC 49843
Procedure: After a 15 minute incubation, the spores were treated with 3 mM L-tyrosine-3 mM uric acid. The germination rate was set to 100% for P. larvae spores germinated in the absence of inhibitor. Germination rates for other conditions were divided by the uninhibited maximum germination rate obtained with 3 mM L-tyrosine-3 mM uric acid, and are reported as percent germination. Percent germination was plotted against the inhibitor concentrations.

[3] = tested on: honey bee larvae contacted with P. larvae spores; assay: Survival of honey bee larvae fed diet with indole analogs and P. larvae spores; assay type: in vivo; conditions: 0.5 mM in larval diet (wj) plus P. larvae spores; for survival of honey bee larvae vs P. larvae spores alone: 7-day development, p<0.002
Procedure: First instar honey bee larvae were obtained from two colonies headed by naturally mated queens (Honey Bee Genetics, Vacaville Calif.). Queens were trapped on empty frames within a cage constructed with queen excluder. Worker bees can fit through the excluder but the queen cannot exit the cage. The frame was placed within the brood chamber to stimulate egg laying by the queen overnight. Eggs were incubated in the hive for 4 days to allow newly hatched larvae to be fed by nurse bees. First instar honey bee larvae were brought into the laboratory and stored in a 35° C. 85% relative humidity chamber before grafting.
Sterile six well plates with a well volume of 17.0 ml were filled with 2.5 ml of pre-warmed artificial worker jelly. Honey bee larvae were transferred into each well using the thin tongue made of flexible plastic from a Chinese grafting tool. The plastic grafting tool was decontaminated with 70% ethanol throughout usage. Grafting was performed in the sterile environment of a honey bee laboratory, and honey bee larvae were then transferred to a bacterial spore laboratory for control and spore exposure treatments.
Artificial worker jelly was prepared using a lyophilized royal jelly, D-glucose, D-fructose, yeast extract, and autoclaved double distilled water. Ingredients minus lyophilized royal jelly were dissolved in autoclaved double distilled water. Lyophilized royal jelly was added to this sugar-yeast extract solution and mixed thoroughly with a vortex mixer. Artificial diet was prepared an hour prior to use for larval rearing. To reduce the development of worker-queen hybrids because of nutrition, the composition and amounts of artificial worker jelly were controlled in every larval stage.
Honey bee larvae were incubated in an air tight plastic container placed inside an incubator. The desired relative humidity (95%) and temperature (35° C.) was verified with an iButton data logger (Maxim Integrated; San Jose, Calif.). The appropriate relative humidity was obtained by placing a solution of 20% glycerol by weight. The plastic containers were was decontaminated throughout usage with detergent, 70% ethanol, and treated with an ultraviolet lamp overnight.
Feeding of diets was performed daily in different amounts according to Table 2. The amount of diet consumed by larvae was assumed based on published literature. A micropipette was used to place a food drop next to the mouth of the larvae. Drowning was avoided by maintaining the appropriate humidity and water content of diet. Forty first and second instar larvae were placed into one well of a six well plate. Third instar larvae were transferred individually to 48 well plates filled with fresh food.
Larval survival was determined daily by observing signs of respiration, disease symptoms, and other abnormalities with a stereo microscope. The number of dead larvae was recorded, and surviving larvae were fed fresh food. The start of pupation was indicated by the appearance of uric acid crystals and light yellow excretions in the remaining food.
The larval survival data was analyzed using the LogRank test in SigmaPlot.

P. larvae spores [4] = assay: Determination of germinants / agonists of P. larvae spore germination (OD580 decrease); assay type: cell-based, Paenibacillus larvae subsp. pulvifaciens strain ATCC 49843; conditions: 3 mM amino acid or analog plus 3 mM uric acid
Procedure: (§1) The decrease in optical density is proportional to spore germination (Powell, J. Gen. Microbiol., 4:330-338, 1950). Changes in light diffraction during spore germination were monitored at 580 nm (OD580) on a Biomate 5 (ThermoElectron Corporation, Waltham, Mass.) or a Tecan Infinite m200 (Tecan group, Männedorf, Switzerland) spectrophotometer. Experiments were carried out in 96-well plates (200 μL/well). In preparation for germination assays, P. larvae spore suspensions were washed three times with water. Spores were then heat activated at 70° C. for 30 minutes. The heat-activated spores were allowed to reach room temperature and transferred to 0.1 M sodium phosphate buffer (pH 7.0) to an approximate OD580 of 0.70. Spores were monitored for auto-germination for 30 minutes. […] Putative germinants were added individually or in combinations to a final concentration of 3 mM. Experiments were performed in triplicate with at least two different spore preparations. After germinant addition, OD580 of the spore suspension was measured every minute for an hour. Relative OD values were derived by dividing each OD580 reading by the initial OD580. Spore germination rates (v) were calculated from the initial linear decrease in relative OD (Akoachere et al., supra). Germination rates were set to 100% for P. larvae spores that had the fastest germination rate in an assay. Germination rates for other conditions were divided by the maximum germination rate for that assay and are reported as percent germination. Standard deviations were calculated from at least six independent measurements and are typically below 10%. Spore germination was confirmed in selected samples by microscope observation of Schaeffer-Fulton stained aliquots (Schaeffer and Fulton, supra).
To test for possible agonists of P. larvae spore germination, spores were individually supplemented with 3 mM of a purine analog and 3 mM L-tyrosine. Separately, P. larvae spores were incubated with 3 mM of an amino acid analog and 3 mM uric acid. Spore germination was monitored as described above. […]

P. larvae spores [5] = assay: Antagonists of P. larvae spore germination, 3 mM (Example 1); assay type: cell-based, Paenibacillus larvae subsp. pulvifaciens strain ATCC 49843; conditions: 3 mM analog, 15 minutes, then 3 mM L-tyrosine/3 mM uric acid
Procedure: as §1
To test for possible antagonists of P. larvae spore germination, spores were individually supplemented with 3 mM of a purine analog or 3 mM of an amino acid analog. […] If no germination was detected, L-tyrosine and uric acid were added to 3 mM final concentrations, and germination was monitored as described above. […]

[6] = tested on: P. larvae subsp. larvae spores; assay type: cell-based, Paenibacillus larvae subsp. larvae
From the text: Chemicals were purchased from Sigma Aldrich Corporation (St. Louis, Mo.). Dehydrated culture media was purchased from BD Difco (Franklin Lakes, N.J.). Paenibacillus larvae subsp. pulvifaciens strain ATCC 49843 was purchased from the […] (ATCC). Environmental American Foulbrood scales (the remains of infected larvae collected from infected hives) were kindly donated by Dr. Jay D. Evans at the USDA Bee Research Facility in Beltsville, Md.
To test the generality of P. larvae spore response, spores were prepared from P. larvae subsp. pulvifaciens strain ATCC 49843, and also from an environmental AFB sample.

P. larvae spores [7] = assay: Activation of P. larvae spore germination by L-tyrosine and uric acid (titration); assay type: cell-based, Paenibacillus larvae subsp. pulvifaciens strain ATCC 49843; conditions: Paenibacillus larvae
Procedure: The decrease in optical density is proportional to spore germination (Powell, J. Gen. Microbiol., 4:330-338, 1950). Changes in light diffraction during spore germination were monitored at 580 nm (OD580) on a Biomate 5 (ThermoElectron Corporation, Waltham, Mass.) or a Tecan Infinite m200 (Tecan group, Männedorf, Switzerland) spectrophotometer. Experiments were carried out in 96-well plates (200 μL/well). In preparation for germination assays, P. larvae spore suspensions were washed three times with water. Spores were then heat activated at 70° C. for 30 minutes. The heat-activated spores were allowed to reach room temperature and transferred to 0.1 M sodium phosphate buffer (pH 7.0) to an approximate OD580 of 0.70. Spores were monitored for auto-germination for 30 minutes. […] After germinant addition, OD580 of the spore suspension was measured every minute for an hour. Relative OD values were derived by dividing each OD580 reading by the initial OD580. Spore germination rates (v) were calculated from the initial linear decrease in relative OD (Akoachere et al., supra). […] Standard deviations were calculated from at least six independent measurements and are typically below 10%. […]
P. larvae spore germination was tested with different combinations of L-tyrosine and uric acid. […] Germination rates were determined as above. […]

[8] = 15 minutes incubation, then 3 mM L-tyrosine/3 mM uric acid, read-out: IC50 inhibition of P. larvae spore germination
[9] = Table 1, 15 minutes prior to addition of 3 mM uric acid and 3 mM L-tyrosine, standard deviations in parentheses, N/A = no activity under the conditions tested, read-out: IC50
[10] = Paenibacillus larvae, Table 2, saturating uric acid/L-tyrosine concentrations, read-out: IC50
[11] = environmental P. larvae subsp. larvae compared with strain ATCC 49843

Cn1ccc2ccccc21 [1-N-methylindole]
IC50 inhibition of P. larvae spore germination (P. larvae spores [1]; 15 minutes incubation, then 3 mM L-tyrosine/3 mM uric acid): neither activated nor inhibited

Cc1c[nH]c2ccccc12 [3-methylindole]
IC50 (P. larvae spores [1]; [8]): 380 µM | IC50 (P. larvae spores [1]; [9]): 380 µM

N#Cc1cccc2[nH]ccc12 [4-cyanoindole]
IC50 (P. larvae spores [2]; [10]): 200 ± 20 µM

Brc1ccc2[nH]ccc2c1 [5-bromindole]
IC50 (P. larvae spores [2]; Table 2, saturating uric acid/L-tyrosine concentrations, read-out: IC50): 60 ± 70 µM | ranking of effect on larval survival among analogs [3]: greatest effect | survival of honey bee larvae vs P. larvae spores alone [3]: increased survival

Fc1ccc2[nH]ccc2c1 [5-fluoroindole]
IC50 (P. larvae spores [2]; [10]): 120 ± 20 µM

Oc1ccc2[nH]ccc2c1 [5-hydroxyindole]
IC50 (P. larvae spores [2]; [10]): 550 ± 170 µM

Cc1ccc2[nH]ccc2c1 [5-methylindole]
IC50 (P. larvae spores [1]; [8]): 370 µM | IC50 (P. larvae spores [1]; [9]): 370 µM

O=[N+]([O-])c1ccc2[nH]ccc2c1 [5-nitroindole]
IC50 (P. larvae spores [2]; [10]): 70 ± 10 µM | survival of honey bee larvae vs P. larvae spores alone [3]: increased survival

Brc1ccc2cc[nH]c2c1 [6-bromoindole]
IC50 (P. larvae spores [2]; [10]): 60 ± 60 µM | survival of honey bee larvae vs P. larvae spores alone [3]: increased survival

Clc1ccc2cc[nH]c2c1 [6-chloroindole]
IC50 (P. larvae spores [2]; [10]): 20 µM | survival of honey bee larvae vs P. larvae spores alone [3]: increased survival

N#Cc1ccc2cc[nH]c2c1 [6-cyanoindole]
IC50 (P. larvae spores [2]; [10]): 110 ± 10 µM

Fc1ccc2cc[nH]c2c1 [6-fluoroindole]
IC50 (P. larvae spores [2]; [10]): 120 ± 10 µM

Cc1cccc2cc[nH]c12 [7-methylindole]
IC50 (P. larvae spores [1]; [8]): 280 µM | IC50 (P. larvae spores [1]; [9]): 280 µM

N[C@H](Cc1ccc(O)cc1)C(=O)O [D-tyrosine, reference compound]
germination response as co-germinant with uric acid (P. larvae spores [4]): none of the compounds tested was able to activate | inhibition of uric acid/L-tyrosine-induced germination (P. larvae spores [5]): did not inhibit

c1ccc2[nH]ccc2c1 [Indole]
IC50 (P. larvae spores [2]; Paenibacillus larvae): 370 ± 20 µM | IC50 (P. larvae spores [2]; Paenibacillus larvae, read-out: IC50 inhibition of P. larvae spore germination (previously shown)): 400 µM | IC50 (P. larvae spores [1]): 330 µM | IC50 (P. larvae spores [1]; read-out: IC50 inhibition of P. larvae spore germination): 370 µM | inhibition of germination, both P. larvae sub-species [6, 11]: similarly inhibited | inhibition of uric acid/L-tyrosine-induced germination (P. larvae spores [5]): able to inhibit

N[C@@H](Cc1ccc(O)cc1)C(=O)O [L-tyrosine]
EC50 (P. larvae spores [7]; read-out: EC50 for L-tyrosine activation of P. larvae spore germination): 1200 µM | germination response to L-tyrosine and uric acid, both P. larvae sub-species [6, 11]: responded identically | germination response as co-germinant with uric acid (P. larvae spores [4]): strong germination response

Oc1ccccc1 [Phenol]
inhibition of germination, both P. larvae sub-species [6]: similarly inhibited | germination response as co-germinant with uric acid (P. larvae spores [4]): none of the compounds tested was able to activate | inhibition of uric acid/L-tyrosine-induced germination (P. larvae spores [5]): able to inhibit

O=c1[nH]c(=O)c2[nH]c(=O)[nH]c2[nH]1 [uric acid, reference compound]
EC50 (P. larvae spores [7]; titration of uric acid at saturating L-tyrosine concentration (3 mM), read-out: EC50 for uric acid activation of P. larvae spore germination): 200 µM | germination response to L-tyrosine and uric acid, both P. larvae sub-species [6, 11]: responded identically
